Tests used:
[1] = tested on: AP-labeled antibody; experiment: Western blot assay with compound 5 and lucigenin; settings: 0.66 mM 5, 64 μM lucigenin, 0.1 M tris pH 8.8; PVDF membrane
Text: A composition of the present invention were used to detect and quantify a protein, human transferrin in a Western blot with an AP-labeled antibody on a polyvinylidene difluoride (PVDF) membrane. Dilutions of transferrin containing from 5000, 1000, 180, 30 and 5 pg, respectively, of protein were electrophoresed and transferred to PVDF membranes (Millipore, Bedford, Mass.). The transferrin bands were blocked with and then reacted sequentially with goat anti-human transferrin and rabbit anti-goat-AP conjugate. The membranes were soaked briefly with reagents comprising 0.1 M tris buffer, pH 8.8 containing 0.88 mM MgCl2, 0.66 mM compound 5 and 64 μM lucigenin. The membranes were placed between transparent plastic sheets and exposed to X-ray film. The bands for human transferrin were detected after 10 min with a 2.5 min exposure. The light produced using this composition led to intense emission which could be imaged for several hours.
Similar results were obtained using nitrocellulose blotting membrane instead of PVDF membrane.

[2] = tested on: alkaline phosphatase (AP); experiment: Chemiluminescent detection of alkaline phosphatase with acridan phosphate and surfactant enhancer; type: biochemical; settings: 0.66 mM 5, 0.2 M 2-methyl-2-amino-1-propanol pH 9.6, 0.5 mg/mL Enhancer A; 10^−13 mol AP, 25° C.
[3] = tested on: alkaline phosphatase (AP); experiment: Chemiluminescent detection of alkaline phosphatase with acridan phosphate and cationic aromatic compound (CAC); type: biochemical

CN1c2ccccc2C(=C(OP(=O)([O-])[O-])Sc2ccccc2)c2ccccc21.[Na+].[Na+] [Compound 5, 9-(Phenylthiophosphoryloxymethylidene)-10-methylacridan, disodium salt]
period for which emission could be imaged [1]: several hours | chemiluminescence on reaction with AP [2]: easily measurable blue chemiluminescence | time to maximum chemiluminescence intensity [2]: 2 min | time to maximum chemiluminescence intensity ([3]; 0.66 mM 5, 6.4 μM lucigenin, 1 mg/mL SDS, 0.01 mg/mL Na2SO3, 0.033% TWEEN 20, tris pH 8.8, 8×10^−16 mol AP, 25° C.): 2 min | S at 36 min (plateau intensity) ([3]; 21 mM CAC in DMSO diluted 1:1000 into compound 5 in 0.1 M tris pH 8.8, 4×10^−16 mol AP, room temperature): 34.7

Reference: patent publication US6635437B2, “Compounds, compositions and methods for generating chemiluminescence with phosphatase enzymes” (Lumigen, Inc., priority 1996, dated 2003)
